Results as given in publication PMC4639779, “Peptide Functionalized Gold Nanorods for the Sensitive Detection of a Cardiac Biomarker Using Plasmonic Paper Devices” (Scientific Reports, 2015).
Values joined by “and” are separate entries in the source; they are usually repeats but may differ in a detail not shown here. Identical values can stand only once.

Experiments:
cTnI (troponin I) = assay: LSPR detection of cTnI with bioplasmonic paper device in buffer; type: binding, human; settings: highest concentration tested, 3.53 μg/ml cTnI
Protocol: To probe the sensing capability of the BPDs, we exposed the BPDs to troponin I (3.53 μg/ml in 0.1 M TBS pH 8.0). […] The higher sensitivity of peptide-AuNR compared to antibody-AuNR is due to differences in the thickness of the peptide and antibody adsorbate layer as will be discussed in detail below. To probe the limit of detection in both cases, BPDs with bioconjugated AuNR were exposed to varying concentrations of cTnI. […] To compare the selectivity of the peptide and antibody towards cTnI, we used human serum albumin (HSA) as an interfering protein (Supplemental Figure S11). […] A regular laboratory filter paper (Whatman #1) was used for the absorption of nanorods. A 1 cm × 1 cm paper strip is taken and immersed in a solution of AuNR conjugates (peptide and antibody) and left overnight at 4 °C. The paper strip was taken out and washed with tris buffer and immersed in different concentrations of troponin in tris buffer (pH 8) for 2 hours at 4 °C. It was removed and washed thoroughly with tris buffer and dried under a stream of nitrogen. Extinction spectra from paper substrates were collected using a CRAIC microspectrophotometer (QDI 302) coupled to a Leica optical microscope (DM 4000 M) with 20× objective in the range of 450–800 nm with 10 accumulations and 100 ms exposure time in reflection mode. The spectral resolution of the microspectrophotometer is 0.2 nm. […]

[1] = AFM dry state thickness of recognition layer on AuNR; type: physicochemical
Protocol: We have also used dynamic light scattering (DLS) to monitor the changes in the hydrodynamic size of the AuNR upon bioconjugation with cTnI binding peptide or anti-cTnI. […] The dry state thickness of the peptide and antibody recognition layers was measured using atomic force microscopy (AFM; Supplemental Figure S6).
Now we turn our attention to the structure-based functional mechanism of the peptide-conjugated BPDs. The structure and thickness layer of the peptide recognition element on the gold surface was also investigated using molecular dynamic simulations (described in the supplemental section). […] The amino acid Trp[10] in the peptide (a possible binding residue to cTnI) is distal to the gold surface and accessible for cTnI binding. […] These key residues provide structural information and will be used in further studies for the optimization of peptide recognition elements for cTnI. Of importance to this study, the thickness of the biomolecule adlayer can be obtained from our molecular dynamic simulations. […] The smaller thickness of the peptide layer renders higher sensitivity of BPDs using peptide recognition elements. For calculating the thickness layer from our computational models, the gold surface is aligned in the XY plane and the thickness of the peptide or peptide-cTnI complex on the gold surface is calculated as the maximum difference of the Z-coordinates. […]

[2] = Distance-dependent refractive index sensitivity of AuNR (layer-by-layer); type: physicochemical
From the text: We probed the distance-dependent sensitivity of the AuNRs, nanotransducers used in this study, by depositing polyelectrolyte multilayers using layer-by-layer (LbL) assembly. Extinction spectra were collected after the deposition of each bilayer comprised of poly(allylamine hydrocholoride) (PAH) as a positively charged polymer and poly(styrene sulfonate) (PSS) as a negatively charged polymer. […] It is instructive to define a parameter called distance-dependent refractive index sensitivity (σ), which is the LSPR shift caused by the deposition of a 1 nm thick dielectric layer (polyelectrolyte multilayers in the present case) at a predetermined distance from the surface of the nanotransducer. The extinction measurements after troponin binding to the bioconjugated AuNR were performed in the dry state. So, considering that the thickness of peptide and antibody in their dry state is ~1 nm and ~4.2 nm for peptide and antibody, respectively, the values of σ are computed as shown in Fig. 5E. For peptide recognition elements, σ is found to be 6.67 nm/nm whereas in case of antibody, σ is found to be 4.33 nm/nm. From the distance-dependent refractive index sensitivity measurements, it can be seen that the local refractive index sensitivity with peptide recognition elements is nearly 50% higher than compared to that with antibody-based recognition elements. […] This discrepancy can possibly be due to the higher number of cTnI molecules bound on the AuNR surface in the case of the peptide recognition elements compared to antibodies. The low steric hindrance of the peptides facilitates a higher density of the recognition elements on the surface of the Au nanotransducers and thus a higher density of cTnI molecules. This observation will be further explored in future studies in order to maximize the sensitivity of our BPDs.
Glass substrates were modified by 1% P2VP followed by the adsorption of AuNR. […]

cTnI = target: T1, cTnI (Homo sapiens, UniProt P19429); settings: identified from a phage display peptide library; cited from earlier work
T1 construct: purchased Life Diagnostics, USA
From the text: Gold nanorods (AuNR) are an attractive choice as plasmonic nanotransducers for label-free sensing because of their geometrical tunability of LSPR wavelength and high sensitivity. We synthesized AuNRs using a seed-mediated approach with a length of 47.3 ± 2.3 nm and a diameter of 20.2 ± 1.4 nm (Fig. 2A). The human troponin I binding peptide (-FYSHSFHENWPS-), identified from a phage display peptide library, with nanomolar (nM) binding affinity to cTnI was employed here as the biorecognition element. The conjugation of the peptide to AuNRs as achieved by introducing a cysteine residue at ...

[3] = target: T2, Human Cardiac Troponin-I Recombinant (human, UniProt P19429 1-210); assay: pull-down; peptide-conjugated AuNRs with cTnI; SDS-PAGE, blotted with polyclonal goat antibody; settings: both partners purified
T2 construct: human cardiac troponin I, recombinant, bought; also called cTnI; source: bought: Life Diagnostics, USA (recombinant)
T2 sequence (P19429 whole entry): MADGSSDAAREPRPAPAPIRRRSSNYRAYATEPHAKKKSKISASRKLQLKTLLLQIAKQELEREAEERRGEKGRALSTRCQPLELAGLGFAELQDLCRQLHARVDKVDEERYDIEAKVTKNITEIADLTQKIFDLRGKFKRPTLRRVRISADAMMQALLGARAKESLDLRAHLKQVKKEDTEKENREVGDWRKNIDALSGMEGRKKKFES

T1 sequence (P19429 whole entry): as above

## -FYSHSFHENWPSC- [cysteine-modified peptide]
cTnI (troponin I)
  LSPR shift higher than with antibodies as recognition elements: ~100%
[1]
  thickness of recognition layer on AuNR: 0.96 nm and ~ 0.9 nm
[2]; AuNRs on glass, PAH/PSS multilayers, at dry thickness of ~1 nm (peptide) or ~4.2 nm (antibody)
  distance-dependent refractive index sensitivity (σ): 6.67 nm/nm
[2]; from σ curve of Fig. 5E
  corresponding LSPR shift from the distance-dependence curve: 24.5 nm
[2]; peptide vs antibody
  local refractive index sensitivity higher than with antibody-based recognition elements: ~50%

## -FYSHSFHENWPS-
cTnI
  binding affinity to cTnI: nanomolar

B1: cysteine-modified human troponin I binding peptide (-FYSHSFHENWPSC-) (peptide)
peptide: FYSHSFHENWPSC
notes: In all assays the peptide was attached to gold (Au surface of the QCM, or gold nanorods) by an Au-S linkage through its C-terminal cysteine; source: synthetic peptide, bought: Genscript USA Inc
[3]
  binding result: binds
